Measured values from publication PMC11284790, “Targeting Myeloperoxidase Ameliorates Gouty Arthritis: A Virtual Screening Success Story” (Journal of Medicinal Chemistry, 2024).
Where two headings read alike, the source gives them in different places.

Columns and labels:
MSU-induced paw edema [1] = assay: MSU-induced paw edema, intraperitoneal treatment; assay type: in vivo; conditions: for reduction of paw edema (time-dependent AUC) vs VEH + MSU: 30 mg/kg i.p.; for effect on paw edema over time: i.p. 30 min before MSU, mefenamic acid 30 mg/kg, RL6 3, 10, 30, RL7 0.3, 3, 30, ZINC9089086 3, 10, 30 mg/kg, 6 h
Description: MSU-induced edema was performed as previously described.[22] The compounds were prepared by dilution in a solution containing 0.5% Tween 80 and 5% DMSO and then resuspended in PBS prior to administration. The animals were treated intraperitoneally (i.p.) with the following substances: vehicle (VEH: 5% DMSO; 0.5% Tween 80 in PBS), mefenamic acid (a nonsteroidal anti-inflammatory drug at a dosage of 30 mg/kg), RL6 (at doses of 3, 10, and 30 mg/kg), RL7 (at doses of 0.3, 3, and 30 mg/kg), or ZINC9089086 (at doses of 3, 10, and 30 mg/kg).[31] After 30 min, the mice were anesthetized using inhaled isoflurane (2% v/v in O2). A hypodermic syringe with a 31-gauge needle (BD, Franklin Lakes, NJ, USA) was used to administer the vehicle (VEH: PBS, 30 μL) or MSU (1.5 mg/30 μL) via the intraplantar route (i.pl.), into the right hind paw (Figure 9).
(§1) Paw volume (mL) was measured at various time points, including before injection (baseline, B), […] 1, 2, 3, 4, 5, and 6 h following MSU injection using a plethysmometer (Ugo Basile, Comerio, Italy) (Figure 7). For this, the injected hind paw was immersed into the dipping solution (6 mM NaCl diluted in distilled water and added with 2 mL/L of a wetting compound provided by the manufacturer) until the ankle. The extent of edema was quantified as a change in paw volume (Δ mL) by subtracting the basal paw volume from the volume of the paw measured at each time point. To evaluate the antiedematogenic effect of orally administered MPO inhibitors (p.o.), the animals were fasted for 1 h and then treated with equimolar doses of the following substances: vehicle (VEH: 5% DMSO; 0.5% tween 80 in PBS), mefenamic acid (30 mg/kg), RL 6 (33 mg/kg), RL 7 (54 mg/kg), RL 21 (30 mg/kg), or ZINC9089086 (34 mg/kg). After 1 h, the anesthetized mice (2% isoflurane, v/v in O2) received either the vehicle (PBS, 30 μL, i.pl.) or 1.5 mg/30 μL MSU (i.pl.). The paw volume was evaluated at the same time points as previously described. The percentage of edema inhibition by the compounds was calculated discounting the paw volume of mice that received oral or intraperitoneal vehicle and PBS intraplantar (VEH + VEH).

MSU-induced paw edema [2] = assay: MSU-induced paw edema, oral treatment; assay type: in vivo, male C57BL/6 mice
Description: as §1

[3] = tested on: total peroxidase activity; assay: Paw tissue total peroxidase activity after MSU; assay type: in vivo, male C57BL/6 mice; conditions: intraperitoneal pretreatment (RL6 30 mg/kg), tissue collected at 6 h
Description: After the assessment of paw edema was completed, the mice were immediately anesthetized by inhalation of 2% isoflurane mixture in oxygen (O2). Subsequently, the surface of the hind paws was collected for the measurement of total peroxidase activity, IL-6, and IL-1β. These tissue samples were then frozen using dry ice and stored at −80 °C until further analysis. The frozen tissues were later pulverized into a fine powder using liquid nitrogen and homogenized in a phosphate buffer (100 mM, pH 7.4). For the analysis of total peroxidase activity, a portion of this homogenate was mixed with hexadecyltrimethylammonium (1% HTAB, pH 6.0), vigorously vortexed, and sonicated. The resulting mixture was then centrifuged at 10,000g for 10 min, at 4 °C, and heated at 60 °C for 2 h. The sample of each supernatant was incubated with a solution containing 50 mM phosphate buffer, 0.164 mg/mL of o-dianisidine dihydrochloride, and H2O2 (0.0005%, pH 6.0). […] Each unit represents the capacity to degrade 1 μmol of H2O2 per minute.[81]

IL-1β = assay: Paw tissue IL-1β level after MSU (ELISA); assay type: in vivo, male C57BL/6 mice; conditions: intraperitoneal pretreatment (RL6 30 mg/kg), tissue collected at 6 h
Description: (§2) The remaining part of the homogenate was treated with a solution of protease/phosphatase inhibitors (1 mM phenylmethylsulfonyl fluoride, 10 μg/mL leupeptin, and 10 μg/mL trypsin inhibitor) and centrifuged at 10,000g (10 min at 4 °C). The obtained supernatants were subjected to 1:2 dilution in PBS and subsequently used for the assessment of IL-1β and IL-6 using murine enzyme-linked immunosorbent assay kits, specifically a sandwich ELISA technique, following manufacturer’s instructions (BioLegend, CA, USA). The protein content within the samples was determined by using the Bradford method (1976). The results were quantified and expressed in pg/mg of protein (Bio-Rad, Hercules, CA, USA).[76]

IL-6 = assay: Paw tissue IL-6 level after MSU (ELISA); assay type: in vivo, male C57BL/6 mice; conditions: intraperitoneal pretreatment (RL6 30 mg/kg), tissue collected at 6 h
Description: as §2

dHL-60 cells = assay: Cellular production of HOCl, PMA-activated dHL-60 cells; assay type: cell-based, human; conditions: 20 μM compound, 100 nM PMA, 1 h
Description: Human promyelocytic leukemic cells (HL-60) (BCRJ, RJ, Brazil) were cultivated in RPMI with fetal bovine serum (10%), penicillin (62 μg/mL), and streptomycin (100 μg/mL) at 37 °C in 5% CO2 atmosphere. HL-60 cells were differentiated to neutrophil-like (dHL-60) by DMSO (1.25%) during 4 days.[25]
(§3) Measurement of HOCl production by 1 × 10^6 dHL-60 or neutrophils was carried out in PBS (10 mM Na2HPO4, 2 mM KH2PO4, 0.5 mM MgCl2, 1 mM CaCl2, 140 mM NaCl, 5.5 mM dextrose, 100 μM diethylenetriaminepentaacetic acid, 5 mM taurine) in the presence of the compounds (20 μM in 0.3% DMSO) or 0.3% DMSO (control). Cells were activated with phorbol myristate acetate (100 nM) at 37 °C for 1 h. After incubation, cells were centrifuged at 1400 rpm for 10 min, and the supernatant was diluted threefold. Finally, 240 μL of this supernatant was added to 60 μL acetate buffer (400 mM, pH 5.4) containing NaI (100 μM) and TMB (2 mM in DMFO 10%). Taurine chloramine was quantified by TMB oxidation at 655 nm.[33] Inhibition of HOCl production was calculated as the percentage of the control (vehicle).

[4] = tested on: human peripheral blood neutrophils; assay: Cellular production of HOCl, PMA-activated peripheral blood neutrophils; assay type: cell-based; conditions: 20 μM compound, 100 nM PMA, 1 h
Description: Human neutrophils were obtained from healthy individuals as previously described.[24] The experiments were approved by the local ethics committee (CEPSH-ICB 1435/18).
as §3

human neutrophils = assay: MSU-induced NETosis assay (sytox green fluorescence microscopy); assay type: cell-based; conditions: 20 μM compound, MSU 250 μg/mL, 90 min
Description: NETosis assay was conducted on human neutrophils adhered to lysine-coated glass coverslips as previously reported.[80] After neutrophils’ adhesion, the compounds were diluted in RPMI medium (free of phenol red and fetal bovine serum) at a final concentration of 20 μM (0.15% DMSO) and added to the cells for 15 min at 37 °C in a 5% CO2 atmosphere. Then, MSU crystals (250 μg/mL), known to induce NETosis, were added. After 90 min incubation, the medium was carefully removed, paraformaldehyde was added (500 μL at 4%), and incubated at 4 °C overnight. In the following day, paraformaldehyde was removed, and cells were washed threefold with tris-HCl buffer (20 mM, pH 7.4) and kept into the same buffer at 4 °C. Tris-HCl buffer was carefully removed, and DNA was stained by adding 500 μL SYTOX Green (500 nM diluted in tris-HCl buffer). The system was kept for 30 min at room temperature, protected from light. After staining, the coverslips were mounted over the glass slides using ProLong Diamond Antifade Mountant fixation medium. Fluorescence images were acquired in an Axiovert 200 (Zeiss) fluorescence microscope with a 20x/0.4 objective and Zeiss Filter Set 09, λex = 450–490 nm, λem = above 515 nm. Images were taken by an Axiocam HR R3 camera device.

Human leukocyte MPO [5] = molecular target: T1, Human leukocyte MPO (Homo sapiens, UniProt P05164); conditions: read-out: previously reported IC50 for MPO; cited from earlier work
T1 sequence (P05164 279-745 limits assumed): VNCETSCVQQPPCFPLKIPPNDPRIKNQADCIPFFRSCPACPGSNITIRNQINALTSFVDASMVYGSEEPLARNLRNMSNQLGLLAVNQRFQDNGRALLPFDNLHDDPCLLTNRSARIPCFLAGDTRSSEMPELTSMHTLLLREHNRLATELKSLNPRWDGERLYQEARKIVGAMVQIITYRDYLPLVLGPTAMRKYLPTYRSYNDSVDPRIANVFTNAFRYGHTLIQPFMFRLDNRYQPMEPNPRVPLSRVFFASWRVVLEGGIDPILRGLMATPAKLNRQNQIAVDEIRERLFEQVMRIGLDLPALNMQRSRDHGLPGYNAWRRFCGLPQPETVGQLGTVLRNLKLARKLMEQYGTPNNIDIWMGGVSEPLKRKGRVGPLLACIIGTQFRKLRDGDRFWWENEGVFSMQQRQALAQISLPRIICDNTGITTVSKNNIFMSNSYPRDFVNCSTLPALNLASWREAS
T1 sequence (P05164 165-278 limits assumed): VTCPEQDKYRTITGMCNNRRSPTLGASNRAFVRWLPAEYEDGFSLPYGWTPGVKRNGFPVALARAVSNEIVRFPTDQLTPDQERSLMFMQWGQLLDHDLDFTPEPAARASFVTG

Human leukocyte MPO [6] = molecular target: T1, Human leukocyte MPO; assay: MPO chlorinating activity assay (taurine chloramine/TMB); assay type: biochemical; set-up: Human leukocyte MPO (EC 1.7.1.11) was purchased from Planta Natural Products; purchased Planta Natural Products (Vienna, Austria); host or cells: human leukocytes
Description: Chlorinating activity was carried out in phosphate buffer (20 mM, pH 7.4). Compounds (20 μM) were dissolved in 0.03% DMSO, MPO (10 nM), diethylenetriaminepentaacetic acid (100 μM), cetyltrimethylammonium chloride (0.03%), NaCl (140 mM), and taurine (5 mM).[31] This mixture was incubated at 37 °C for 15 min before adding 40 μM hydrogen peroxide. The reaction ran for 8 min and was then stopped by catalase (20 μg/mL). Oxidation of TMB (2 mM) (3,3,5,5-tetramethylbenzidine) by taurine chloroamine catalyzed by iodide (100 μM) was quantified at 650 nm.[33] Results were expressed as a percentage of the control (vehicle). IC50 was calculated by nonlinear regression using the Hill equation present in GraphPad Prism 5 software.

Human leukocyte MPO [7] = molecular target: T1, Human leukocyte MPO; assay: MPO peroxidatic activity assay (AmplexRed oxidation); assay type: biochemical; set-up: Human leukocyte MPO (EC 1.7.1.11) was purchased from Planta Natural Products; purchased Planta Natural Products (Vienna, Austria); host or cells: human leukocytes
Description: MPO peroxidase activity was kinetically monitored using the artificial peroxidase substrate AmplexRed, which is oxidized to resorufin and can be detected by fluorescence.[34] Reactions were carried out in phosphate buffer (50 mM, pH 7.4), MPO (100 pM), cetyltrimethylammonium chloride (0.03%), diethylenetriaminepentaacetic acid (100 μM), AmplexRed (30 μM), and compounds (20 μM in 0.3% DMSO). The reaction was started by adding 2 μM hydrogen peroxide. The reaction product was assessed by fluorescence at λex = 530 and λem = 580 nm. The initial velocity was calculated by the slope of the linear regression in the first minutes of reaction. Inhibition is represented as a percentage of the control (vehicle).

Row | IC50 (Human leukocyte MPO [6]; 10 nM MPO, 140 mM NaCl, pH 7.4) [µM] | inhibition at 20 µM (Human leukocyte MPO [6]; 20 μM compound, 10 nM MPO, 140 mM NaCl, 5 mM taurine, 40 μM H2O2, pH 7.4, read-out: % Inhibition (at 20 μM) Chlorinating) [%] | inhibition at 20 µM (Human leukocyte MPO [6]; supplementary csv copy of Table 1, read-out: % Inhibition (Chlorinating)) [%] | inhibition at 20 µM (Human leukocyte MPO [7]; 20 μM compound, 100 pM MPO, 30 μM AmplexRed, 2 μM H2O2, pH 7.4, read-out: % Inhibition (at 20 μM) Peroxidatic) [%] | inhibition at 20 µM (Human leukocyte MPO [7]; supplementary csv copy of Table 1, read-out: % Inhibition (Peroxidatic)) [%] | Compound | reduction of paw edema (time-dependent AUC) vs VEH + MSU (MSU-induced paw edema [1]) [%] | effect on paw edema over time (MSU-induced paw edema [1]) | inhibition of edema vs VEH + MSU (MSU-induced paw edema [2]; 30 mg/kg, positive control of the oral experiment (Figure 8 legend: i.p.)) [%] | reduction in total peroxidase activity in hind paw tissue [3] | decrease in IL-1β levels in hind paw tissue (IL-1β) | effect on IL-6 levels in hind paw tissue (IL-6) | inhibition of HOCl production in dHL-60 cells (dHL-60 cells) | inhibition of HOCl production in peripheral blood neutrophils [4] | inhibition of MSU-induced NETosis (human neutrophils) | IC50 (Human leukocyte MPO [5]) [µM] | inhibition of edema vs VEH + MSU (MSU-induced paw edema [2]; 34 mg/kg po)
1 |  |  |  |  |  | Cc1cccc(Nc2ccccc2C(=O)O)c1C [mefenamic acid, reference compound] | 91.1 | prevented paw edema for up to 4 h | 77.3 | unable to decrease | unable to decrease | unable to decrease |  |  |  |  | 
2 | 5.25 | 92.3 ± 11.6 | 92.3 ± 11.6 | 94.1 ± 26.4 | 94.1 ± 26.4 | CCCc1cc(=O)[nH]c(=S)[nH]1 [PTU, propylthiouracil, reference compound] |  |  |  |  |  |  | most effective | most effective | strongly inhibited | 3.38 | 
3 |  |  |  |  |  | CCc1c(O)[nH]c2nc3ccccc3n2c1=O [ZINC9089086] | 93.4 | inhibited paw edema at all of the tested doses |  | unable to decrease | unable to decrease | unable to decrease |  |  |  |  | no significant inhibition
